Reference: USRE38425E1, “Semicarbazones having CNS activity and pharmaceutical preparations containing same” (University of Saskatchewan Technologies, Inc., priority 1995, dated 2004)

How the values were obtained:
in vivo [1] = details: rat, ip
mice [2] = details: intraperitoneal injection in mice; time t (h) per compound as in the table
Protocol: An initial anticonvulsant evaluation of the compounds prepared according to Example 1 was undertaken by administering the compounds by the intraperitoneal route to mice. Protection and/or neurotoxicity was noted 0.5 and 4 hours after administering doses of 30, 100 and 300 mg/kg of each semicarbazone to the animals.
Doses of 30, 100 and 300 mg/kg were injected by the intraperitoneal route into mice and evaluated in the MES, scPTZ and neurotoxicity screens one half and four hours after administration.

rats [3] = test: neurotoxicity screen after oral administration to rats; details: oral dosing of rats; 500 mg/kg
Protocol: (§2) Initially doses of 50 mg/kg of the semicarbazones were administered.

epileptic chicken = epileptic chicken model (intermittent photic stimulation); assay type: in vivo; details: Gallus gallus; convulsions induced by intermittent photic stimulation
Source text: Two series of compounds were examined with the aim of observing whether oxygen or sulfur is a preferable spacer atom between the two aryl rings and also to compare the ED50 figures with those obtained in the rat oral and mouse intraperitoneal screens.

rats [4] = details: oral administration to rats; examined ¼-24 h; data taken from reference 1; cited from earlier work
mice [5] = test: MES screen after intraperitoneal injection in mice; assay type: in vivo; details: time t (h) per compound as in the table
mice [6] = test: subcutaneous bicuculline test; assay type: in vivo
Source text: (§1) Compound 4b was also examined for protective effects after subcutaneous administration of strychnine. […] Two animals per dose were used except in the bicuculline and picrotoxin tests for 4b in which cases, 8 or 16 animals per dose were employed.

in vivo [7] = details: rat, po
Protocol: as §2

mice [8] = test: timed intravenous pentylenetetrazole test; assay type: in vivo; details: for quantity of pentylenetetrazole administered (SE) to clonus / quantity of pentylenetetrazole administered (SE) to first twitch: mice i.p.
Protocol: The times from the commencement-of the infusion until the appearances of the first twitch and also the onset of clonus were recorded for the test and control animals. […] Ten animals were used as controls and for each dose administered except for the 13 mg/kg dose of 4b in which case 9 animals were employed.

mice [9] = test: subcutaneous picrotoxin test; assay type: in vivo
Source text: as §1

rats [10] = test: MES screen after oral administration to rats
Protocol: The majority of the compounds were examined for oral activity in rats. Initially doses of 50 mg/kg of the semicarbazones were administered.
Evaluation of most of the semicarbazones and analogs in the MES and neurotoxicity tests after oral administration to rats was performed.

rats [11] = details: rat, in vivo, ip
in vivo [12] = details: mouse, ip
mice [13] = test: subcutaneous strychnine test; assay type: in vivo; details: dose range of 13.5-108 mg/kg
Source text: as §1

rats [14] = test: MES screen after intraperitoneal injection into rats; assay type: in vivo; details: Rattus norvegicus, ip, 4 h
[15] = system: rat livers (liver microsomal system); test: effect of chronic oral administration on rat livers; assay type: in vivo, rats; details: 100 mg/kg orally daily for three days; p>0.05
Protocol: Further bioevaluations of compound 4b were undertaken.
Rats were administered 100 mg/kg of 4b daily for 3 days. The livers were removed, weighed and the effect of 4b on the liver microsomal system were compared to control animals which received only the vehicle (sonicated 0.5% methylcellulose).^21-23

kindled rat = kindled rat test (corneal kindled rat screen); assay type: in vivo, rats; details: Rattus norvegicus; read-out: ED50 (dose required to reduce seizures from stage 5 to stage 3 or less)
Source text: Particularly preferred compounds according to the present invention are 4-(4′-fluorophenoxy)benzaldehyde semicarbazone and 4-(thiophenoxy)benzaldehyde semicarbazone. […] Incidentally, the kindled rat screen is described by R. J. Racine in “Modification of Seizure Activity by Electrical Stimulation. II. Motor Seizure”, Electroencephalogr.Clin.Neurophysiol., 1972, 32, 281-294, and by G. Skeen et al. In “Development of Kindled Seizures Following Electrical Stimulation via the Cornea”, Soc.Neurosci., 1990, 16(1), 307; the disclosures of which are incorporated herein by reference.
The kindled rat test was undertaken by reported procedures (as indicated above). Compound 4b was administered orally and the animals challenged with electrical stimuli 2h later. The ED50 is the dose required to reduce seizures from stage 5 to stage 3 or less and these stages are described as follows namely stage 1 is mouth and facial clonus, stage 2 is stage 1 plus head nodding, stage 3 is stage 2 plus forelimb clonus, stage 4 is stage 3 plus rearing and stage 5 is stage 4 plus repeated rearing and falling.

rats [16] = test: scPTZ screen after intraperitoneal administration to rats; assay type: in vivo; details: for protection in the scPTZ screen, rats protected: intraperitoneal administration to rats
[17] = various doses (5g 12-96 mg/kg), given 1 h (4b) or 0.5 h (5g) before
[18] = TD50 dose (4b 108 mg/kg, 5g 95 mg/kg)
[19] = approximate MES ED50 dose (4b 13 mg/kg, 5g 15 mg/kg)
[20] = oral administration to rats, dose 50 mg/kg, 0.25 h
[21] = oral administration to rats, dose 50 mg/kg, 0.5 h
[22] = oral administration to rats, dose 50 mg/kg, 1 h
[23] = oral administration to rats, dose 50 mg/kg, 2 h
[24] = oral administration to rats, dose 50 mg/kg, 4 h

NC(=O)NN=Cc1ccc(Oc2ccc(F)cc2)cc1 [Compound 4b, 4-(4′-fluorophenoxy)benzaldehyde semicarbazone]
TD50 at 4 h (in vivo [1]): 80.1 mg/kg | acPTZ screen ED50 (mice [2]): >54 mg/kg | neurotoxicity at the maximum dose utilized (rats [3]): absence of neurotoxicity | ED50 (epileptic chicken): 1.5 mg/kg | neurotoxicity screen TD50 (rats [4]): >500 mg/kg | ED50 (mice [5]; Mus musculus, ip, read-out: MES screen ED50 (mg/kg), intraperitoneal injection in mice): 15 to 25 mg/kg | MES screen ED50 (mice [5]; intraperitoneal injection in mice): 12.86 mg/kg | number of animals protected in the subcutaneous bicuculline test (mice [6]; 54 mg/kg): 0/8 | number of animals protected in the subcutaneous bicuculline test (mice [6]; 108 mg/kg): 3/8 | number of animals protected in the subcutaneous bicuculline test (mice [6]; 216 mg/kg): 3/8 | protection against convulsions induced by subcutaneous bicuculline (mice [6]; [17]): partial protection | TD50 (in vivo [7]): > 500 mg/kg | quantity of pentylenetetrazole administered (SE) to clonus (mice [8]; [18]): 42.1(1.4) mg/kg | quantity of pentylenetetrazole administered (SE) to first twitch (mice [8]; [18]): 32.6(0.8) mg/kg | quantity of pentylenetetrazole administered (SE) to clonus (mice [8]; [19]): 37.6(1.5) mg/kg | quantity of pentylenetetrazole administered (SE) to first twitch (mice [8]; [19]): 32.3(1.4) mg/kg | effect on time to clonus (mice [8]; mice, dose of 108 mg/kg): increased the time to clonus | proconvulsant properties (mice [8]; mice, intraperitoneal doses = MES ED50 and TD50 figures, pentylenetetrazole infused after 1 h): Neither compound possessed this undesirable feature | protection in the subcutaneous picrotoxin test (animals protected) (mice [9]; 27 mg/kg): 1/8 | protection in the subcutaneous picrotoxin test (animals protected) (mice [9]; 108 mg/kg): 5/16 | protection in the subcutaneous picrotoxin test (animals protected) (mice [9]; 216 mg/kg): 2/8 | protection against convulsions induced by subcutaneous picrotoxin (mice [9]; [17]): partial protection | ED50 (rats [10]; Rattus norvegicus, po, read-out: MES screen ED50 (mg/kg), oral administration to rats, time t (h) per compound as in the table): 1.59 mg/kg | MES screen 0.25 h: number of rats out of 4 which were protected (rats [10]; [20]): 2 | MES screen: number of rats out of 4 which were protected (rats [10]; [20]): 2 | MES screen 0.5 h: number of rats out of 4 which were protected (rats [10]; [21]): 4 | MES screen: number of rats out of 4 which were protected (rats [10]; [21]): 4 | MES screen 1 h: number of rats out of 4 which were protected (rats [10]; [22]): 4 | MES screen: number of rats out of 4 which were protected (rats [10]; [22]): 4 | MES screen 2 h: number of rats out of 4 which were protected (rats [10]; [23]): 4 | MES screen: number of rats out of 4 which were protected (rats [10]; [23]): 4 | MES screen 4 h: number of rats out of 4 which were protected (rats [10]; [24]): 4 | MES screen: number of rats out of 4 which were protected (rats [10]; [24]): 4 | slope (SE) of the TD50 (rats [11]): 17.02(6.41) | TD50 (in vivo [12]): 108 mg/kg | protection in the subcutaneous strychnine test (mice [13]): no protection | ED50 (rats [14]): 2.37 mg/kg | differences between livers from treated and control rats (liver weights, microsomal protein yields, hepatic enzyme activities) [15]: No differences | ED50 (kindled rat): 3.93 mg/kg | protection in the scPTZ screen, rats protected (rats [16]; 125 mg/kg): 0/2 | protection in the scPTZ screen, rats protected (rats [16]; 250 mg/kg): 1/10 | protection in the scPTZ screen (rats [16]; rats, dose of 125 mg/kg): did not afford protection | rats protected in the scPTZ screen (rats [16]; rats, dose of 250 mg/kg): 10%
